# Laboratory results taken from ChEMBL document CHEMBL5291721, “A preclinical secondary pharmacology resource illuminates target-adverse drug reaction associations of marketed drugs” (Nat Commun, 2023).
# Legend:
# Mu-type opioid receptor = Mu-type opioid receptor (Homo sapiens, UniProt P35372)
# [1] = target: Sodium-dependent dopamine transporter (Homo sapiens, UniProt Q01959)
# Progesterone receptor = target: T1, Progesterone receptor (Homo sapiens, UniProt P06401)
# T1 sequence (P06401 whole entry): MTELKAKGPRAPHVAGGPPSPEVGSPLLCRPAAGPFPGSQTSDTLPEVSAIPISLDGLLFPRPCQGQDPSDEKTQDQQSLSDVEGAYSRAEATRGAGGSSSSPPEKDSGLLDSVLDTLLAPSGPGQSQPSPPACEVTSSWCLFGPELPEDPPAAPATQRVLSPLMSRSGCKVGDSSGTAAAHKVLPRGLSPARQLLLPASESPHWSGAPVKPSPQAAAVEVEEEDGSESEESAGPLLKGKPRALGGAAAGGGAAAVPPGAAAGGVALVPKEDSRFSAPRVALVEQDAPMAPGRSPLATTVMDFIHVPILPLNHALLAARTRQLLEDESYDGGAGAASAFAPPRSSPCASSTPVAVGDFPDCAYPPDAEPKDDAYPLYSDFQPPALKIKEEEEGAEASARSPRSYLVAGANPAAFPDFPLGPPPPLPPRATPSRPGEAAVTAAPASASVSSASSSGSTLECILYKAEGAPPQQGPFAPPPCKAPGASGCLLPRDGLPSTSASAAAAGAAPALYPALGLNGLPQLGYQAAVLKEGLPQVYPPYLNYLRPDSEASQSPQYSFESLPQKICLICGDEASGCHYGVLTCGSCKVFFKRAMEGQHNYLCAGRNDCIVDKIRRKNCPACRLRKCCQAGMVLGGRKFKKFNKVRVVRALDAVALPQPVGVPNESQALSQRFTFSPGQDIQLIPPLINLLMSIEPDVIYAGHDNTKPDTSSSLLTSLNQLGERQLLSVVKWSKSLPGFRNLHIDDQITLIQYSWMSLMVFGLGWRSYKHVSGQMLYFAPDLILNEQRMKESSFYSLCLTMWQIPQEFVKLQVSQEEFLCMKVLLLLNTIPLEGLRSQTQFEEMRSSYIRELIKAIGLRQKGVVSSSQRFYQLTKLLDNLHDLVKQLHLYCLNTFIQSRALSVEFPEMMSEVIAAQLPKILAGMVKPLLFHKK
# [2] = target: T2, Alpha-1A adrenergic receptor (Homo sapiens, UniProt P35348); format: functional, cell-based
# T2 sequence (P35348 whole entry): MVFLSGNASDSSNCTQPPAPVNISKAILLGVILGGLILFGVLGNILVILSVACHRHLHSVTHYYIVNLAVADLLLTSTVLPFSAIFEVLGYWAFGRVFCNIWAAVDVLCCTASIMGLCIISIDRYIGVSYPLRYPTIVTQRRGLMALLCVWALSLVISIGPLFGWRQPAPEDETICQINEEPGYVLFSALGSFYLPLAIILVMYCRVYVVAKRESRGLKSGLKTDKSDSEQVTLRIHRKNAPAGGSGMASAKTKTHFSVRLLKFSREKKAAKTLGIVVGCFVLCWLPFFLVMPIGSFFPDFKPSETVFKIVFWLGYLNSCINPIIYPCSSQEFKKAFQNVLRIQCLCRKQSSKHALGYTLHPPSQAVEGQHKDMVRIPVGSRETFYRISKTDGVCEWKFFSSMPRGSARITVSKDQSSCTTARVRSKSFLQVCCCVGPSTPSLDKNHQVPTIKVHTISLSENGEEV
# Histamine H3 receptor = Histamine H3 receptor (Homo sapiens, UniProt Q9Y5N1)
# Histamine H3 receptor, sequence (Q9Y5N1 whole entry): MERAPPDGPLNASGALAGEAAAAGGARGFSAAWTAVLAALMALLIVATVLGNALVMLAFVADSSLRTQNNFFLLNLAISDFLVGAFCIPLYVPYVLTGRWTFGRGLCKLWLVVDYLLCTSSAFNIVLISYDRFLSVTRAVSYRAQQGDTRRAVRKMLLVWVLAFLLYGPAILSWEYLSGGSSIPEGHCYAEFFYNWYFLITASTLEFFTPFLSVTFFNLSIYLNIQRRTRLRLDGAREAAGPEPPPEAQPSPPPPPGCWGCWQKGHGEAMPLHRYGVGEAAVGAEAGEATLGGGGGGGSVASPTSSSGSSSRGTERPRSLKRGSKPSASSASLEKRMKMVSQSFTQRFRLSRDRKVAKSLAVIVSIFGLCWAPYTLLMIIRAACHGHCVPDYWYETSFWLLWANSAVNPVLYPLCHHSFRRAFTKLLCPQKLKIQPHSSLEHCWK
# [3] = target: Sodium-dependent noradrenaline transporter (Homo sapiens, UniProt P23975)
# Sodium-dependent noradrenaline transporter, sequence (P23975 whole entry): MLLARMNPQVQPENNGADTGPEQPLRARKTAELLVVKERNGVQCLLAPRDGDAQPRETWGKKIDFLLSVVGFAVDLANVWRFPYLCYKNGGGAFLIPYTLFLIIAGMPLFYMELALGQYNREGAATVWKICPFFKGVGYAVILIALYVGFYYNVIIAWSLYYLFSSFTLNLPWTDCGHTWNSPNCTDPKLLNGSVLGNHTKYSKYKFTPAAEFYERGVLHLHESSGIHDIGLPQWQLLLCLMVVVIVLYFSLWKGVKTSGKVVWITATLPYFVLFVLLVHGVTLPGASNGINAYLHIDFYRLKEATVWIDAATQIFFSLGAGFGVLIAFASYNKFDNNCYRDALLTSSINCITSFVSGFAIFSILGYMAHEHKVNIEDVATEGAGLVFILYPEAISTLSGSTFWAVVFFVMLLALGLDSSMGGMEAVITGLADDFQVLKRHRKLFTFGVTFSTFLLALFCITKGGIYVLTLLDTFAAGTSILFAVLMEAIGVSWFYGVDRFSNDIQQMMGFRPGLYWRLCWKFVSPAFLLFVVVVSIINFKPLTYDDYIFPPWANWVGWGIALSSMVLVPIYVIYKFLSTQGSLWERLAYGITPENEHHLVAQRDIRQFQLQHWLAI
# Thromboxane A2 receptor = target: T3, Thromboxane A2 receptor (Homo sapiens, UniProt P21731); format: functional, cell-based
# T3 sequence (P21731 whole entry): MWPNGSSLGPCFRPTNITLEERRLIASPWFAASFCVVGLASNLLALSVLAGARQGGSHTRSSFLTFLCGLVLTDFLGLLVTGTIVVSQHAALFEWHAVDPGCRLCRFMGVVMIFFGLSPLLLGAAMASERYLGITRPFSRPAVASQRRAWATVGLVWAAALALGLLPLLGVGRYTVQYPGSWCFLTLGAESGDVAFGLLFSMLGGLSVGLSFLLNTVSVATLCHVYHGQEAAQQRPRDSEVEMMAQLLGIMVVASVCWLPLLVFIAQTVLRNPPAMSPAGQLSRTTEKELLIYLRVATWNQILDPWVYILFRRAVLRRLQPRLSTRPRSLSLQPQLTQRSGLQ
# Prothrombin = Prothrombin (Homo sapiens, UniProt P00734); format: functional
# [4] = target: cGMP-inhibited 3',5'-cyclic phosphodiesterase 3A (Homo sapiens, UniProt Q14432); format: functional
# cGMP-inhibited 3',5'-cyclic phosphodiesterase 3A, sequence (Q14432 whole entry): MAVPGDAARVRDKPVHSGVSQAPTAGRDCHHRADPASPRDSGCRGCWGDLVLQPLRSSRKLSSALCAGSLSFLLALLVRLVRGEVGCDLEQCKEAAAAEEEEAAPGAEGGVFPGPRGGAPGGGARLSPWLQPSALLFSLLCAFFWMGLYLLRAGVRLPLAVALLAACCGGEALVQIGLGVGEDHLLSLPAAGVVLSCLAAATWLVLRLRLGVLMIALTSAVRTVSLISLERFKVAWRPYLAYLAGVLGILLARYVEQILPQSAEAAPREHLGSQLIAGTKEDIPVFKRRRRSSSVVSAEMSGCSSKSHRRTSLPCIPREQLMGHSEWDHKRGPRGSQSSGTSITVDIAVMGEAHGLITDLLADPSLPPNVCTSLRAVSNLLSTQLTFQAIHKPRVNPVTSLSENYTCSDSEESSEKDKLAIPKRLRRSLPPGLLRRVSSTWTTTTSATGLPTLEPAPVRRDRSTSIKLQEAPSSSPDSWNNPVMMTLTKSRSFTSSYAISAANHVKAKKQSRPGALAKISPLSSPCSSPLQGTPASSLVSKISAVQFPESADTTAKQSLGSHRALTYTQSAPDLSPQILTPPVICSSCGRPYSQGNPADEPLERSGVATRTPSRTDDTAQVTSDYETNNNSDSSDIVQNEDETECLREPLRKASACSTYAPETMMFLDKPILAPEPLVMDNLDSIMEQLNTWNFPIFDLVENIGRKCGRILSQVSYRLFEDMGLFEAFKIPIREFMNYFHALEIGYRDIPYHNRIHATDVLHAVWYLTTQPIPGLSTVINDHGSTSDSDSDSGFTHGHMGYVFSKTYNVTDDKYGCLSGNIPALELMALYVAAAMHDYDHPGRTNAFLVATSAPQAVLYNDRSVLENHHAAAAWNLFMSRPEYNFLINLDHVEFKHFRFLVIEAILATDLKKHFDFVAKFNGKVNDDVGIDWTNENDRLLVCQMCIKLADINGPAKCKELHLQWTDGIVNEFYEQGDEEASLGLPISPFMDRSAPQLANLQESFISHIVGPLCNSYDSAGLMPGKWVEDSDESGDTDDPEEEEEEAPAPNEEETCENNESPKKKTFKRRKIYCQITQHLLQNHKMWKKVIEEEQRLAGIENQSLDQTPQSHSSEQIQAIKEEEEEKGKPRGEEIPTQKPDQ
# [5] = target: T2, Alpha-1A adrenergic receptor
# [6] = target: T4, Muscarinic acetylcholine receptor M2 (Homo sapiens, UniProt P08172); format: functional, cell-based
# T4 sequence (P08172 whole entry): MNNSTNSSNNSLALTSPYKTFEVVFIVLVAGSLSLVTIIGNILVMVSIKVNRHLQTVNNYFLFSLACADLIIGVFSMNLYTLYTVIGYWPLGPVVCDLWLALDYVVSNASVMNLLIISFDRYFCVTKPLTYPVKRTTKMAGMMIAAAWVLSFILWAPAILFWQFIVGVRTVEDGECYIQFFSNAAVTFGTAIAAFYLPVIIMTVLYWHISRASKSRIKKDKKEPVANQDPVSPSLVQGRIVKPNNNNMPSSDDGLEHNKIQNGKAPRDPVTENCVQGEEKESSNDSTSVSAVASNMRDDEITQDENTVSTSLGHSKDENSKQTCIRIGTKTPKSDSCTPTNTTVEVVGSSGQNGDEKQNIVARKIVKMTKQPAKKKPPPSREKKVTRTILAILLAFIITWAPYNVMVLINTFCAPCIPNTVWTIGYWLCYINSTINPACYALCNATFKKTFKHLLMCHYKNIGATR
# Further: assay procedure not described here.
# Sodium-dependent dopamine transporter, sequence (Q01959 whole entry): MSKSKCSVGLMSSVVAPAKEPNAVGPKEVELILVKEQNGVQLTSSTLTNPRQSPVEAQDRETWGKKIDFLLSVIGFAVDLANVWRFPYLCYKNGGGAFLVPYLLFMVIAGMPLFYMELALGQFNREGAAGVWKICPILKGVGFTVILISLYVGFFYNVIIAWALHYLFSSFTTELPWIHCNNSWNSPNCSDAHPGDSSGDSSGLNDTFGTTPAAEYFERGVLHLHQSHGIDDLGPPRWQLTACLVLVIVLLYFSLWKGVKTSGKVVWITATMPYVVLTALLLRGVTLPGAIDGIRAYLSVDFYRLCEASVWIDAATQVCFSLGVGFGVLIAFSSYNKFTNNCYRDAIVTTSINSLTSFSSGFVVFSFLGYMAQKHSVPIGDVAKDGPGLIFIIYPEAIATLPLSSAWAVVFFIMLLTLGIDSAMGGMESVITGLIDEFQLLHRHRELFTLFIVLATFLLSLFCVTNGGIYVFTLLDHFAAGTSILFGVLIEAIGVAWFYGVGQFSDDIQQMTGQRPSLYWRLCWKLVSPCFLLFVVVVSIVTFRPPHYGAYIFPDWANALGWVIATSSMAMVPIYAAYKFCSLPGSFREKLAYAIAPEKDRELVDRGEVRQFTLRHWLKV
# Mu-type opioid receptor, sequence (P35372 whole entry): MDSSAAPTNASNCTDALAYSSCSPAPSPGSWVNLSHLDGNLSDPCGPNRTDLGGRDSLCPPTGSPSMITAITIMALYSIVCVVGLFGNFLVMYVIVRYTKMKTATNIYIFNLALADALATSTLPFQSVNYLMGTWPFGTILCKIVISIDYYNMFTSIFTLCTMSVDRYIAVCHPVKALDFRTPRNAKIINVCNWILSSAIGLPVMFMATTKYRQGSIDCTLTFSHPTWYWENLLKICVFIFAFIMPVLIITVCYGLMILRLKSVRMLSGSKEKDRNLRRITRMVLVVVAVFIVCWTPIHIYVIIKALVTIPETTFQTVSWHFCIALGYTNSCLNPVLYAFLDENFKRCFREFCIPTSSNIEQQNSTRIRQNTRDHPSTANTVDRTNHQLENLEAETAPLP
AC50 [5],AC50 [6],Molecule,AC50 (Mu-type opioid receptor),AC50 [1],AC50 (Progesterone receptor),AC50 [2],AC50 (Histamine H3 receptor),AC50 [3],AC50 (Thromboxane A2 receptor),AC50 (Prothrombin),AC50 [4]
–,–,CN(C)c1ccc(C(=C2C=CC(=[N+](C)C)C=C2)c2ccc(N(C)C)cc2)cc1 [GENTIAN VIOLET],3.9 µM,3.4 µM,1.67 µM,0.845 µM,4.71 µM,4.7 µM,> 30 µM,25.2 µM,> 30 µM
–,–,Nc1ccc(S(N)(=O)=O)cc1 [SULFANILAMIDE],–,> 30 µM,> 30 µM,> 30 µM,> 30 µM,–,> 30 µM,> 30 µM,> 30 µM
> 30 µM,> 30 µM,HYDROXOCOBALAMIN,–,–,–,–,–,–,–,–,–
